Counter-ions that a name gives are not always drawn.
Test system: A549 human lung epithelium cell line
Experiment: RANTES production in response to TNF-α from A549 cells
Format: cell-based
Conditions: Homo sapiens, A549, A549 cells, 100 ng/ml TNF-α, read-out: Cellular activity grade (A549) (Cellular IC50)
Method in brief: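 Cells (4×10^4/well) in D-MEM/10% FCS preincubated 1 h at 37 °C with compound in 1% DMSO, then stimulated with 100 ng/ml TNF-α for 24 h. Supernatant RANTES quantified by Eu-labelled sandwich immunoassay (time-resolved fluorescence, ex 340/em 615 nm) against recombinant human RANTES standard.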

Row | IC50 [nM] | Structure (SMILES)
1 | 1000 to 10000 | NC(=O)c1cc2c(C3CCNCC3)cc(-c3c(O)cccc3OCC3CC3)nc2[nH]c1=O [Example 25-3, 7-[2-(cyclopropylmethoxy)-6-hydroxyphenyl]-2-oxo-5-(4-piperidinyl)-1,2-dihydro-1,8-naphthyridine-3-carboxamide hydrochloride]
2 | < 1000 | O=c1ccc2c(C3CCCNC3)cc(-c3c(O)cccc3OCC3CC3)nc2[nH]1 (centres unmarked) [Example 25-4, 7-[2-(cyclopropylmethoxy)-6-hydroxyphenyl]-5-(3-piperidinyl)-1,8-naphthyridin-2(1H)-one hydrochloride]
3 | < 1000 | CCOC(=O)C1Cc2c(C3CCCNC3)cc(-c3ccccc3O)nc2NC1=O (centres unmarked) [Example 26-1, ethyl 7-(2-hydroxyphenyl)-2-oxo-5-(3-piperidinyl)-1,2,3,4-tetrahydro-1,8-naphthyridine-3-carboxylate]
4 | < 1000 | NC(=O)C1Cc2c(C3CCNCC3)cc(-c3c(O)cccc3OCC3CC3)nc2NC1=O (centres unmarked) [Example 26-2, 7-[2-(cyclopropylmethoxy)-6-hydroxyphenyl]-2-oxo-5-(4-piperidinyl)-1,2,3,4-tetrahydro-1,8-naphthyridine-3-carboxamide hydrochloride]
5 | < 1000 | O=C1CCc2c(C3CCCNC3)cc(-c3ccccc3O)nc2N1 (centres unmarked) [Example 27-1, 7-(2-hydroxyphenyl)-5-(3-piperidinyl)-3,4-dihydro-1,8-naphthyridin-2(1H)-one hydrochloride]
